Test results from patent publication EP0103895A2, “Novel hydroxylamine derivatives, production and use thereof” (MEIJI SEIKA KABUSHIKI KAISHA, priority 1982, dated 1984).
Several values for one entry are separate records, joined by “and”; a condition that tells them apart may be missing. Equal entries are not always repeated. Where two headings read alike, the source gives them in different places.

How the values were obtained:
[1] = test system: fowl roundworm (Ascaridia galli); assay: Anthelmintic test in chickens artificially infected with fowl roundworm, single oral dose in gelatin capsule, worm bodies counted within 48 hours (Test Examples A1, B1, C1, D1); format: in vivo; conditions: Ascaridia galli, po, 48 h, chicken, chickens No.1-3, read-out: Anthelmintic effect after 48 hours
Method: Chickens infected artificially with fowl roundworm (Ascaridia galli) were employed in groups each consisting of three chickens. Fecal matter testing was conducted before administration of medicine to confirm infection with the worm. The quantity of the compound provided for testing was 10 mg and 20 mg per Kg of body weight, which was orally administered each in a gelatin capsule to the chicken. The number of worm bodies discharged within 48 hours after administration of medicine was counted, the chicken was killed after 48 hours and the number of worm bodies remaining in the enteron was counted to determine the anthelmintic percentage, wherefrom the antihelmintic effect was judged.
The same as that in Test Example Al.
The same as that in Test Example Al except that the compound provided for testing was in quantities of 30 mg and 50 mg per Kg of body weight, which were orally administered to the chickens in gelatin capsules.
The same as that in Test Example Al, except that the compounds provided for testing were used in quantities of 15 mg and 30 mg per Kg of body weight, which were orally administered each in a gelatin capsule to the chicken.

[2] = test system: canine filaria; Dirofilaria immitis; assay: Test of anthelmintic effect against canine filaria in naturally infected dogs, subcutaneous injection, microfilaria in blood and adult filaria at autopsy (Test Examples A10, B10, C10, D10); format: in vivo; conditions: for inhibition in vivo at 30 mg/kg: Dirofilaria immitis, sc, 240 h
Method: Eight dogs infected with canine filaria; Diro- filaria immitis (naturally infected dogs) were employed in groups each of two dogs.
The compounds provided for tests were Compound Nos. Al, A3 and A12. 20 mg of each was administered by subcutaneous injection per Kg of body weight to each of the two dogs as a suspension in 1% "Tween 80" solution once per day for three days. As control, 3 ml of the 1% "Tween 80" solution was subcutaneously injected into two dogs once per day for three days.
Before administration and on the 10th day after administration, 20 µl of earlobe blood of each dog was sampled and examined to determine the change in microfilaria (mf) according to the concentrated smear color method, and judgement on the effect on microfilaria (mf) was made. Judgement relating to adult filaria was made on the 10th day after the last administration by killing the dogs and carrying out autopsis.
30 mg of each compound was administered by subcutaneous injection per Kg of body weight to each of the two dogs as a suspension in 1% "Tween 80" solution once per day for three days. As control, 3 ml of the 1% "Tween 80" solution was subcutaneously injected into two dogs once per day for three days.
30 mg of each compound was administered by subcutaneous injection per Kg of body weight to each of two dogs as a suspension in 1% "Tween 80" solution once per day for three days. As control, 3 ml of the 1% "Tween 80" solution was subcutaneously injected to two dogs once per day for three days.
20 mg of each compound was administered by subcutaneous injection per kg of body weight once per day for three days to each of two dogs. These compounds were administered as a suspension in 1% "Tween 80" in the case of Compound No.Dl3 and as solutions dissolved in distilled water for injection in the case of Compounds Nos. D10 and D16, respectively. As control, 3 ml of the 1% "Tween 80" solution was subcutaneously injected into two dogs once per day for three days.

[3] = test system: fowl roundworm (As. galli); assay: Anthelmintic test in chickens artificially infected with fowl roundworm, compound added to feed, E.P.G. and worm count up to 21st day (Test Examples A2, B2, C2, D2); format: in vivo, Ascaridia galli; conditions: chicken
Method: Chickens artificially infected with fowl roundworm (As. galli) were employed in groups each of two chickens.
Fecal matter testing was conducted before initiation of the test and on the 7th, 14th and 21st day after initiation of the test. Reduction in worm egg number was examined by calculating E.P.G. (worm eggs per 1 g of fecal matter), and the number of discharged worm bodies and the number of worm bodies remaining in the enteron when the chicken was killed on 21st day were counted to determine the anthelmintic percentage, from which the anthelmintic effect was judged.

[4] = test system: fowl roundworm (As. galli); assay: Anthelmintic test in chickens infected with fowl roundworm, single oral dose of 40 mg per Kg, worm bodies counted within 24 hours (Test Example E1); format: in vivo, Ascaridia galli; conditions: 40 mg per Kg oral in gelatin capsule; for inhibition in vivo at 40 mg/kg: Ascaridia galli, 24 h, chicken No.1, read-out: Anthelmintic effect after one day
Method: Chickens infected with fowl roundworm (As. galli) were employed in groups each consisting of five chickens. The compound provided for testing was orally administered in a quantity of 40 mg per Kg of body weight to each chicken in a gelatin capsule. The number of worm bodies discharged within 24 hours after administration of the medicine was counted. Then the chicken was killed, and the number of worm bodies remaining in the enteron was counted to determine the anthelmintic percentage, wherefrom the anthelmintic effect was judged.

[5] = test system: fowl roundworm (As. galli); assay: Anthelmintic test in chickens infected with fowl roundworm, compound added to feed at 250 ppm and 1,000 ppm, E.P.G. and worm count on 5th day (Test Example E2); format: in vivo, Ascaridia galli; conditions: for E.P.G. after 5 days: worm egg number in 1 g of fecal matter; for anthelmintic effect / inhibition in vivo at 250 ppm / inhibition in vivo at 1000 ppm: 5th day; for inhibition in vivo at 250 ppm / inhibition in vivo at 1000 ppm: Ascaridia galli, feed or water, 120 h, read-out: Anthelmintic effect
Method: Chickens infected with fowl roundworm (As. galli) were employed in groups each of two chickens.
The compound provided for the test was dissolved in a small amount of ethyl alcohol and adsorbed on defatted rice bran and added to chicken feed at levels of 250 ppm and 1,000 ppm. As control, a feed containing no such compound was employed.
Fecal matter testing was conducted before initiation of the test and on the 5th day after initiation of the test. The reduction in worm egg count was examined by calculating the E.P.G. (worm egg number in 1 g of fecal matter). The number of discharged worm bodies and the number of worm bodies remaining in the enteron when the chicken was killed on 5th day were counted to determined the anthelmintic percentage, from which the anthelmintic effect was judged.

[6] = 1000 ppm in feed, chicken No. 1
[7] = 1000 ppm in feed, chicken No. 2

Row | Structure (SMILES) | inhibition in vivo at 40 mg/kg [4] [%] | Anthelmintic effect after one day ([4]; chicken No.2) | Anthelmintic effect after one day ([4]; chicken No.3) | Anthelmintic effect after one day ([4]; chicken No.4) | Anthelmintic effect after one day ([4]; chicken No.5) | E.P.G. after 5 days ([5]; 250 ppm in feed, chicken No. 1) | anthelmintic effect ([5]; 250 ppm in feed, chicken No. 2) | E.P.G. after 5 days ([5]; 250 ppm in feed, chicken No. 2) | E.P.G. after 5 days [5, 6] | anthelmintic effect [5, 7] | E.P.G. after 5 days [5, 7] | inhibition in vivo at 250 ppm ([5]; 250 ppm in feed, chicken No. 1) [%] | inhibition in vivo at 1000 ppm [5, 6] [%] | further results
1 | C=CCON(CC=CC)C(C)=O [Compound C9] |  |  |  |  |  |  |  |  |  |  |  |  |  | inhibition in vivo at 30 mg/kg ([1]; 30 mg/Kg oral in gelatin capsule): 100%; inhibition in vivo at 50 mg/kg ([1]; 50 mg/Kg oral in gelatin capsule): 100%; inhibition in vivo at 30 mg/kg ([2]; dog, 30 mg/Kg x 3, subcutaneous injection, read-out: Effect on adult filaria: Percent of worms killed): 70%; inhibition in vivo at 30 mg/kg ([2]; dogs, administration of 30 mg/Kg repeated three times, given as about 50% or more, read-out: anthelmintic effect against adult filaria): ≥ 50%; Number of microfilaria/20 µl On 10th day after the last administration ([2]; dog, 30 mg/Kg x 3, subcutaneous injection, suspension in 1% Tween 80): 0 /20 µl; Effect on adult filaria: Number of worms killed/ Total parasite ([2]; dog, 30 mg/Kg x 3, subcutaneous injection, 30 mg/kg): 14/20 and 19/27; anthelmintic effect against microfilaria (mf) ([2]; dogs, administration of 30 mg/Kg repeated three times): marked anthelmintic effect; inhibition in vivo at 25 ppm ([3]; Ascaridia galli, feed or water, 504 h, 25 ppm in feed, read-out: Anthelmintic effect): 100%; inhibition in vivo at 50 ppm ([3]; Ascaridia galli, feed or water, 504 h, 50 ppm in feed, read-out: Anthelmintic effect): 100%; Change of E.P.G. 21st day ([3]; 25 ppm in feed): 0; Change of E.P.G. 21st day ([3]; 50 ppm in feed): 0
2 | C#CCON(CC#C)C(C)=O [Compound E1, N,O-dipropargyl-N-acetylhydroxylamine] | 100 | +++ (100%) | +++ (100%) | +++ (100%) | +++ (100%) | 0 | +++ (100%) | 0 | 0 | +++ (100%) | 0 | 100 | 100 | 
3 | C#CCON(CC#C)C(=O)CC [Compound E2, N,O-dipropargyl-N-propionylhydroxylamine] | 100 | +++ (100%) | +++ (100%) | +++ (100%) | +++ (100%) | 0 | +++ (100%) | 0 | 0 | +++ (100%) | 0 | 100 | 100 | 
4 | C#CCON(CC#C)C(=O)CCC [Compound E3, N,O-dipropargyl-N-butylylhydroxylamine] | 100 | +++ (100%) | +++ (100%) | +++ (100%) | +++ (100%) | 0 | +++ (100%) | 0 | 0 | +++ (100%) | 0 | 100 | 100 | 
5 | C#CCON(CC#C)C(=O)CCCC [Compound E4, N,O-dipropargyl-N-valerylhydroxylamine] | 100 | +++ (100%) | +++ (100%) | +++ (100%) | +++ (100%) | 0 | +++ (100%) | 0 | 0 | +++ (100%) | 0 | 100 | 100 | 
6 | C#CCON(CC#C)C(=O)CCCCC [Compound E5, N,O-dipropargyl-N-caproylhydroxylamine] | 100 | +++ (100%) | +++ (100%) | +++ (100%) | +++ (100%) | 0 | +++ (100%) | 0 | 0 | +++ (100%) | 0 | 100 | 100 | 
